Test results published in patent publication US20210029995A1, “Use of Volatile Organic Compounds as Pesticides” (Certis Europe B.V., priority 2018, published 2021).
Counter-ions that a name gives are not always drawn.

Assays:
S. carpocapsae = test: Dose mortality assay for the EPNs (Example 2); type: in vivo, Steinernema carpocapsae; conditions: for mortality: after 24 hr
Protocol: (§1) All statistical analyses were carried out using RStudio statistics package (RStudio, Inc. version 1.0.153), using “MASS” and “multcomp” packages. For all mortality data, differential sensitivity between EPN species and/or insect species and differential compound potency were determined using a generalised linear model (GLM) and Tukey's range test in post-hoc analysis. LD50 values were calculated using a GLM and the “dose.p” function within the “MASS” package. An ANOVA was carried out on the chemotactic responses of EPNs to VOCs, with the strength of response compared at each time and concentration. Welch's t-tests were used to compare means of mortality results in the final EPNs efficacy assay.
(§2) Dose mortality assays were performed using 3-octanone and 1-octen-3-ol. The assays were performed as described in Example 1, except that the EPNs (S. carpocapsae (Sc), S. feltiae (Sf) and H. bacteriophora (Hb)) were exposed to different doses of the VOCs (5, 10, 15 and 20 μl). The mortality was recorded as described previously at 3, 6, 12 and 24 hr post treatment. Controls included EPNs only (no VOC) and EPNs+1-octene. The results are shown in FIG. 2 (results 3 hr post treatment), 3 (results 6 hr post treatment), 4 (results 12 hr post treatment) & 5 (results 24 hr post treatment).

S. feltiae [1] = test: Dose mortality assay for the EPNs (Example 2); type: in vivo, Steinernema feltiae
Protocol: as §1, §2

S. feltiae [2] = conditions: 20 μl VOC, checked after 24 hr, sealed Petri dish
Protocol: (§3) Authenticated M. brunneum VOCs, along with other selected VOCs, were screened for nematicidal activity against S. feltiae and H. bacteriophora. […] Each Petri dish (90 mm) contained 20 ml of the water agar medium. The inoculated plates were kept in darkness for 3 hr at room temperature to acclimatize. The plates were then exposed to 20 μl of the VOC dispensed from a 8 mm paper disc (Whatman™, 0.34 mm thickness) positioned on a 25×25 mm glass coverslip placed in the centre of the Petri dish lid (FIG. 1A). The plates were sealed with a double layer of Parafilm and were kept in the dark at 21° C. and checked after 24 hr. The number of live and dead nematodes were counted with the aid of a stereo binocular microscope (30×).
(§4) The deposition was predetermined using bacterial cultures highly sensitive to these VOCs. The edge of the circular zone of inhibition delineated the area of activity.
(§5) Mean of mortality was calculated from the total number of alive and dead individuals across all circles. There were five replicates per treatment and the whole experiment was repeated twice.

H. bacteriophora [3] = conditions: 20 μl VOC, checked after 24 hr, sealed Petri dish
Protocol: as §3, §4, §5

[4] = system: S. carpocapsae, S. feltiae and H. bacteriophora; test: Dose mortality assay, statement for all three EPNs; type: in vivo; conditions: for mortality: all three EPNs, after 24 hr
Protocol: (§6) Authenticated M. brunneum VOCs, along with other selected VOCs, were screened for nematicidal activity against S. feltiae and H. bacteriophora. 750 μl of nematode suspension containing approximately 5000 Us in tap water, was spread uniformly over the water agar surface (2.6% w/v agar, 5 mM potassium phosphate pH 6, 1 mM CaCl2 and 1 mM MgSO4) of a Petri dish. Each Petri dish (90 mm) contained 20 ml of the water agar medium. The inoculated plates were kept in darkness for 3 hr at room temperature to acclimatize. The plates were then exposed to 20 μl of the VOC dispensed from a 8 mm paper disc (Whatman™, 0.34 mm thickness) positioned on a 25×25 mm glass coverslip placed in the centre of the Petri dish lid (FIG. 1A). The plates were sealed with a double layer of Parafilm and were kept in the dark at 21° C. and checked after 24 hr. The number of live and dead nematodes were counted with the aid of a stereo binocular microscope (30×).
as §2, with “EPNs+1-octene.” for “EPNs+1-octene. The results are shown in FIG. 2 (results 3 hr post treatment), 3 (results 6 hr post treatment), 4 (results 12 hr post treatment) & 5 (results 24 hr post treatment).”

H. bacteriophora [5] = test: Dose mortality assay for the EPNs (Example 2); type: in vivo, Heterorhabditis bacteriophora
Protocol: as §1, §2

[6] = system: root knot nematode M. hapla; conditions: for nematicidal activity against M. hapla: 5 μl and 10 μl
Protocol: as §6
A study was conducted to determine the susceptibility of the root knot nematode M. hapla, a major crop pest, to 3-octanone and 1-octen-3-ol. Single egg-mass populations of M. hapla were kindly provided by Dr Ivan Grove (Harper Adams University/Crop and Environment Sciences). Four-week-old tomato plants (Solanum lycopersicum cv. Rutgers) were grown in a greenhouse. Soil in each pot was infested by pipetting egg masses of M. hapla suspended in tap water and cultivated at approximately 25±2° C. in a greenhouse. Six months following inoculation, tomato plants were uprooted and root systems were carefully washed with running tap water to remove adhered soil. The roots were cut into small pieces and extracted by the Baermann funnel method for 3-5 days to obtain live nematodes. The inoculum concentration included a range of life stages and was adjusted to approximately 2000 individuals using tap water by the aid of a haemocytometer. A mortality assay was carried out as described in Examples 1 and 2 above. The assay was carried out at two doses of the VOCs (5 μl and 10 μl) and the mortality was recorded at 3, 6 and 24 hr post treatment. There were three replicates per treatment and the whole experiment was repeated twice.

Compound | Mortality (%) (Mean ± SE) S. feltiae (Sf) (S. feltiae [2]) | Mortality (%) (Mean ± SE) H. bacteriophora (Hb) (H. bacteriophora [3]) | also measured
C=CC(O)CCCCC (centres unmarked) [1-octen-3-ol] | 100% | 91.6±2.1% | LD50 (S. carpocapsae; 24 hr): 41.01 µL; LD50 (S. feltiae [1]; 6 hr): 10.56 µL; mortality [4]: very high; LD50 (H. bacteriophora [5]; 6 hr): 21.72 µL; nematicidal activity against M. hapla [6]: strong nematicidal activity; mortality response ([6]; M. hapla, after 3 hr and 6 hr, 5 and 10 μl): dose dependent response; dead nematodes ([6]; M. hapla, after 24 hr, both doses (5 μl and 10 μl)): over 90%
C=CCCCCCC [1-octene, reference compound] | 20.1 ± 3% | 19.4 ± 3.8% | mortality (S. carpocapsae): ≤ 50%; mortality (S. feltiae [1]; after 24 hr): ≤ 50%; mortalities ([4]; EPNs, over time (3-24 hr)): extremely low
CC(O)C(C)O (centres unmarked) [2,3-Butanediol] | 12.5 ± 7.2% | 11.4 ± 2.3% | 
CCCCCC(=O)CC [3-octanone] | 100% | 100% | LD50 (S. carpocapsae; 12 hr): 94.88 µL; mortality (S. carpocapsae; all doses (5-20 μl)): all nematodes were dead at all doses; mortality (S. feltiae [1]; at all time points (3, 6, 12, 24 hr)): > 99%; LD50 (μl) (S. feltiae [1]; no LD50 calculated): a (>99% mortality from 3 hr); mortality [4]: very high; LD50 (H. bacteriophora [5]; 3 hr): 5.68 µL; mortality (H. bacteriophora [5]; time points later than 3 hr): exceeded 90%; nematicidal activity against M. hapla [6]: strong nematicidal activity; mortality ([6]; in vivo): 100%
C=C(C)[C@H]1CC=C(C)CC1 [(R)-(+)-Limonene] | 16.7 ± 3.2% | 5.9 ± 1.9% | 
CC(C)CCO [Isoamyl alcohol] | 20.8 ± 3% | 9.7 ± 2.1% | 
CC(C)CCOC=O [Isoamyl formate] | 58% | 46.6±1.8% | 
COC(=O)CC(C)C [Methyl isovalerate] | 38.1 ± 7% | 55 ± 2.6% | 
CCCCCCCCCCCCC [Tridecane] | 32.3 ± 5% | 4.1 ± 1.6% | 
CCCCCCCCCCC [Undecane] | 25.4 ± 5.6% | 7.5 ± 2.7% | 
Farnesene | 43 ± 1.1% | 7.8 ± 3.1% | 
